Patent US5858684A, “Method of screening calcium receptor-active molecules” (priority 1995, dated 1999)
Entries after “also recorded” stand apart in the source; their conditions may differ.

Molecular target: T1, bovine parathyroid cell calcium receptor (BoPCaR 1) (Bos taurus, UniProt P35384)
T1 construct: Xenopus oocytes were injected with BoPCaR 1, the 5.3 Kb cDNA encoding a bovine parathyroid cell calcium receptor; expressed in transfected cells; host or cells: Xenopus laevis oocytes injected with cRNA/cDNA of BoPCaR 1
T1 sequence (P35384 20-1085): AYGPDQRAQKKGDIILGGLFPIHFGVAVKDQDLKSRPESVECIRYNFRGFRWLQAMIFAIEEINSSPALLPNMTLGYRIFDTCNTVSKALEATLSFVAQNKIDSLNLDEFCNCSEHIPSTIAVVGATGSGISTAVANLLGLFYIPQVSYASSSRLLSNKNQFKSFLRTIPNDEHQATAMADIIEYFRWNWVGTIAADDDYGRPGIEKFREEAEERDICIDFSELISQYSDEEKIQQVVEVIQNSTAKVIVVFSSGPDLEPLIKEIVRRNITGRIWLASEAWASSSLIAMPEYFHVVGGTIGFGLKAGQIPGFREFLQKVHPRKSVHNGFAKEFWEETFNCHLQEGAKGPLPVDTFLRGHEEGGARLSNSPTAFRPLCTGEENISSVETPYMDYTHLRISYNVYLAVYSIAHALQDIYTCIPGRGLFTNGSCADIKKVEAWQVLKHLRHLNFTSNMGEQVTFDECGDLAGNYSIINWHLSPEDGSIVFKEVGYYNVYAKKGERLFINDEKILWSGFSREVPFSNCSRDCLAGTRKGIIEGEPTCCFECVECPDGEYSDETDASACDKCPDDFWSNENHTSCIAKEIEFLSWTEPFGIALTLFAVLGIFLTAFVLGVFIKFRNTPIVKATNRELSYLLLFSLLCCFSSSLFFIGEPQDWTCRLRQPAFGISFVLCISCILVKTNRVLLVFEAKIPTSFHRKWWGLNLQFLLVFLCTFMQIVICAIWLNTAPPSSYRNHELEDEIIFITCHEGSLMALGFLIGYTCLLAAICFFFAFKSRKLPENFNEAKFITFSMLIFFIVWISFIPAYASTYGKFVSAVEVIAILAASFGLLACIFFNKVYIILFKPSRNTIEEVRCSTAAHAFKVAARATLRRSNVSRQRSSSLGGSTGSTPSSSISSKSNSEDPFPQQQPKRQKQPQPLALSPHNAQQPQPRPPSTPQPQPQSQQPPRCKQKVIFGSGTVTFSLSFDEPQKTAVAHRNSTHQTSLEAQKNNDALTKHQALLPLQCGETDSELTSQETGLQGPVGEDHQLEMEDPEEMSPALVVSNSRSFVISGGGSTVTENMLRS
Assay: Cl- current in Xenopus oocytes expressing BoPCaR 1
Assay type: cell-based
Settings: for Cl- current response in the absence of extracellular Ca2+: no extracellular Ca2+
Experimental: Following incubation, an oocyte was placed into a 100-μl plastic chamber and superfused with MBS at a flow rate of 0.5 ml/min using a peristaltic pump. Test molecules or inorganic polycations were added by rapidly moving the tubing into different buffers. Recording and current-passing electrodes were constructed from thin-wall capillary tubing pulled to a resistance of 1-3 Mohms and filled with 3M KCl. […] Currents were recorded directly onto a strip chart recorder.
The techniques used to clone the parathyroid calcium receptor are briefly described in this example; a more complete description of the techniques is provided in preceding sections, which describe techniques which may be used to clone additional forms of the Ca^2+ -receptor from other cell types. Poly(A^+)-enriched mRNA was initially prepared from bovine parathyroid glands by extracting with guanidinium thiocyanate, centrifugation through CsCl and oligo(dT) cellulose chromatography. […] No such currents were elicited in control eggs injected with water.
These responses are mediated by the following series of biochemical events:
Xenopus oocytes were injected with BoPCaR 1, the 5.3 Kb cDNA encoding a bovine parathyroid cell calcium receptor as described in Example 25. After two to three days, Cl^- currents were examined in the oocytes using a two-electrode voltage clamp.
Xenopus oocytes were injected with BoPCaR 1 as described in Example 25. After two to three days, Cl^- currents were examined in the oocytes using two electrode voltage clamp.

| SMILES | concentrations eliciting increases in Cl- current | large inward currents: effective concentration (cRNA-injected oocytes) | Cl- current response in the absence of extracellular Ca2+ | potentiation of response to submaximal extracellular Ca2+ | Cl- current (1 mM extracellular Ca2+) |
| --- | --- | --- | --- | --- | --- |
| NC[C@@H]1O[C@H](O[C@H]2[C@@H](O)[C@H](O[C@@H]3[C@@H](O)[C@H](N)C[C@H](N)[C@H]3O[C@H]3O[C@H](CN)[C@@H](O)[C@H](O)[C@H]3N)O[C@@H]2CO)[C@H](N)[C@@H](O)[C@@H]1O [Neomycin] | 20 to 100 µM | 200 µM | persists |  |  |
| COc1cccc([C@@H](C)NCCCc2ccccc2)c1 (single isomer, unassigned) [NPS R-467] |  |  |  | potentiate the response |  |
| NCCCNCCCCNCCCNCCCNCCCNC(=O)Cc1c[nH]c2ccccc12 [NPS 019] |  |  | persisted |  | oscillatory increases |
| COc1cccc([C@@H](C)NCCCc2ccccc2Cl)c1 [NPS R-568, (R)-(+)-N-[3-(2-chlorophenyl)propyl]-amethyl-α-3-methoxybenzylamine] |  |  | abolished | potentiate the response; also recorded: potentiated the responses to submaximal concentrations |  |
